Key:
human PPARα = target: T1, human PPARα (Homo sapiens, UniProt Q07869); assay: PPARα activation, PPRE-controlled luciferase reporter in transfected COS-7 cells; format: cell-based; conditions: 25 μM, 24 hours, control 0.01% DMSO
T1 construct: expressed in transfected cells; host or cells: COS-7 monkey kidney cells (ATCC CRL-1651)
T1 sequence (Q07869 192-468 limits assumed): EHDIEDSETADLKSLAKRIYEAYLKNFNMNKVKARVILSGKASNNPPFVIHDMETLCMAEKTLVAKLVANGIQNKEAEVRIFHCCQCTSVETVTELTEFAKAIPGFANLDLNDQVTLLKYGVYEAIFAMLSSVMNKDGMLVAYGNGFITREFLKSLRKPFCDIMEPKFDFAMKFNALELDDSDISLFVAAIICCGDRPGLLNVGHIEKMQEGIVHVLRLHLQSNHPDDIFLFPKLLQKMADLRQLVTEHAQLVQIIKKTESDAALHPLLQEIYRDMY
Procedure: To investigate whether macelignan acts as a ligand of PPAR or not, it was tested according to known method (Cell, 68: 879-887, 1992; J. Biol. Chem., 272: 25252-25259, 1997) using a plasmid expressing PPAR and a vector having PPRE-controlled luciferase genes.
Activation of luciferase expression was measured by transfecting COS-7 monkey kidney cells (ATCC CRL-1651) with the PPARα plasmid and pFR-luciferase vector (Stratagene, USA), and then by treating the transfected cells with macelignan isolated from Example 1 for 24 hours. The PPARα plasmid was obtained by isolating polynucleotide encoding the amino acid sequence of amino acids […] (i.e. PPARα ligand-bound domain of the total amino acid sequence of human PPARα (Genbank Acession No. S74349)) with the primers of SEQ ID NO: 1 ([…]) and SEQ ID NO: 2 (TGGGGTACCTGGCTGAT) by RT-PCR. Then, the polynucleotide was cloned between the restriction enzyme sites of BamHI and KpnI of pFA vector (Stratagene, USA). Herein, mRNA used as the template in RT-PCR was obtained by separating the total RNA in cultured Hep G2 (ATCC HB-8065) human liver cells by using TRIZOL (Invitrogen, USA). RT-PCR was performed by synthesizing cDNA using reverse transcriptase at 42° C. for 60 minutes, and 30 cycles of 1 minute at 95° C., 30 seconds at 54° C. and 2 minutes at 72° C. using Taq polymerase. At this time, the test groups treated with different concentrations (1, 5, 10 and 25 μM) of macelignan according to the present invention were compared to the control treated with 0.01% DMSO, and to the groups treated with different concentrations (1, 5, 10 and 25 μM) of Wy-14643 (Sigma, USA), a compound known as a PPARα ligand.

[1] = tested on: obesity/diabetes mice (db/db mice); assay: Anti-diabetes effect in obesity/diabetes mouse model; format: in vivo; conditions: 10 mg/kg oral; for OGTT blood sugar: 12th day
Source text: A mouse (db/db mouse; The Jackson Laboratory, USA) used in the present invention as an obesity/diabetes model is deficient in leptin genes and cannot control its appetite, and thus takes an excessive amount of food continuously. […] Thus, it can be a typical model of obesity and metabolic diseases. Additionally, it has a higher blood sugar level and can be a typical model of non-insulin-dependent diabetes mellitus. To investigate the effect of preventing and treating diabetes of macelignan, seven mice of 10 week-aged obesity/diabetes mice (db/db mice) were used per test group. To the test groups, macelignan suspended in 0.25% carboxymethyl cellulose was orally administered with the dose of 5 mg/kg (body weight), 10 mg/kg (body weight) and 25 mg/kg (body weight), once per day at a predetermined time, for 14 days. As a control, 0.25% carboxymethyl cellulose was orally administered alone to normal mice in the same dose as administered to the test group. As another control, 0.25% carboxymethyl cellulose was orally administered alone to obesity/diabetes mice in the same dose as administered to the test group. As still another control, 10 mg/kg (body weight) of troglitazone was orally administered. Blood sugar levels of the obesity/diabetes mice were determined from six days before the administration, once per three days. On the 12th day after the oral administration, the test group and the controls were subjected to the Oral Glucose Tolerance Test (OGTT). For this test, obesity/diabetes mice in the test group and the controls were fasted for at least 18 hours, glucose was orally administered to the mice in a dose of 3 g/kg (body weight), and then variations in the blood sugar were measured at 0 minutes, 30 minutes, 60 minutes and 120 minutes after the glucose administration. Additionally, on the 14th day of the oral administration, the final blood sugar level, insulin content in blood (mouse insulin ELISA Kit, Linco Research, o. EZRMI-BK, USA) and adiponectin content in blood (Adiponectin Quantikine ELISA Kit, R&D systems, No. MRP300, USA) were analyzed.

[2] = tested on: obesity/diabetes mice (db/db mice); assay: Effect upon hyperlipidemia and cardiovascular diseases in obesity/diabetes mouse model; format: in vivo; conditions: 10 mg/kg oral, 14 days
Procedure: To investigate effects of macelignan upon the treatment of hyperlipidemia and cardiovascular diseases, seven mice of 10 week-aged obesity/diabetes mice (db/db mice) were used per test group. To the test groups, macelignan suspended in 0.25% carboxymethyl cellulose was orally administered in an administration dose of 5 mg/kg (body weight), 10 mg/kg (body weight) and 25 mg/kg (body weight), once per day at a predetermined time, for 14 days. As a control, 0.25% carboxymethyl cellulose was orally administered alone to normal mice in the same dose as administered to the test group. As another control, 0.25% carboxymethyl cellulose was orally administered alone to obesity/diabetes mice in the same dose as administered to the test group. As still another control, 10 mg/kg (body weight) of troglitazone was orally administered. Fourteen days after the administration, triglyceride concentration in blood (triglyceride measuring kit, Wako, Japan), free fatty acid concentration in blood (free fatty acid measuring kit, Wako, Japan), total cholesterol content in blood (ASAN T-CHO-Lq Reagents, Asan Pharmaceutical Co. Ltd., Korea), HDL-cholesterol content in blood (ASAN HDL-Cholesterol, Asan Pharmaceutical Co. Ltd., Korea), IL-6 content in blood (IL-6 Quantikine ELISA, R&D systems, USA) and TNF-α content in blood were measured for the test groups and the controls.

Row | SMILES | luciferase activity higher than the control (PPARα) (human PPARα) | OGTT blood sugar ([1]; 0 min. after glucose 3 g/kg) | Adiponectin concentration in blood ([1]; 14th day, db/db mice) | Insulin concentration in blood ([1]; 14th day, db/db mice) | OGTT blood sugar ([1]; 30 mins. after glucose 3 g/kg) | OGTT blood sugar ([1]; 60 mins. after glucose 3 g/kg) | OGTT blood sugar ([1]; 120 mins. after glucose 3 g/kg) | Free fatty acid in blood [2] | HDL-cholesterol in blood [2] | IL-6 in blood [2] | TNF-α in blood [2] | Total cholesterol in blood [2] | Triglyceride in blood [2]
1 | Cc1cccc(Nc2cc(Cl)nc(SCC(=O)O)n2)c1C [Wy-14643, reference compound] | about 16 times | – | – | – | – | – | – | – | – | – | – | – | –
2 | Cc1c(C)c2c(c(C)c1O)CCC(C)(COc1ccc(CC3SC(=O)NC3=O)cc1)O2 (stereo not shown) [troglitazone, reference compound] | – | 303.43 ± 37.83 mg/dL | 6682.33 ± 250.05 ng/mL | 18.57 ± 5.88 ng/mL | 610.57 ± 76.21 mg/dL | 523.70 ± 17.10 mg/dL | 456.41 ± 54.69 mg/dL | 1.22 ± 0.27 mEq/l | 43.9 ± 6.34 mg/dL | 10.24 ± 3.60 pg/mL | 30.49 ± 13.18 pg/mL | 134 ± 34.9 mg/dL | 112.57 ± 57.47 mg/dL

Reference: patent US7902254B1, “Method for treating conditions mediated by PPAR using macelignan” (Newtree Co., Ltd., priority 2005, dated 2011)
